Laboratory results from PubChem BioAssay (NCI).
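How tested: cells in 96-well plates exposed to compound for 48 hours at five concentrations. The concentration for 50% growth inhibition is given as GI50. TGI: total growth inhibition.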

How the values were obtained:
Assay in all cases: NCI tumour cell line growth inhibition, 48 h
786-0 renal = system: 786-0 renal
A498 renal = system: A498 renal
A549 NSCLC = system: A549 NSCLC
ACHN renal = system: ACHN renal
CAKI-1 renal = system: CAKI-1 renal
CCRF-CEM leukemia = system: CCRF-CEM leukemia
COLO 205 colon = system: COLO 205 colon
DU-145 prostate = system: DU-145 prostate
EKVX NSCLC = system: EKVX NSCLC
HCC-2998 colon = system: HCC-2998 colon
HCT-116 colon = system: HCT-116 colon
HCT-15 colon = system: HCT-15 colon
HL-60(TB) leukemia = system: HL-60(TB) leukemia
HOP-62 NSCLC = system: HOP-62 NSCLC
HS 578T breast = system: HS 578T breast
HT29 colon = system: HT29 colon
IGROV1 ovarian = system: IGROV1 ovarian
K-562 leukemia = system: K-562 leukemia
KM12 colon = system: KM12 colon
LOX IMVI melanoma = system: LOX IMVI melanoma
M14 melanoma = system: M14 melanoma
MALME-3M melanoma = system: MALME-3M melanoma
MCF7 breast = system: MCF7 breast
MDA-MB-231 breast = system: MDA-MB-231 breast
MDA-MB-435 = system: MDA-MB-435
MOLT-4 leukemia = system: MOLT-4 leukemia
NCI-H226 lung = system: NCI-H226 lung
NCI-H23 lung = system: NCI-H23 lung
NCI-H460 lung = system: NCI-H460 lung
NCI-H522 lung = system: NCI-H522 lung
NCI/ADR-RES ovarian = system: NCI/ADR-RES ovarian
OVCAR-3 ovarian = system: OVCAR-3 ovarian
OVCAR-4 ovarian = system: OVCAR-4 ovarian
OVCAR-5 ovarian = system: OVCAR-5 ovarian
OVCAR-8 ovarian = system: OVCAR-8 ovarian
PC-3 prostate = system: PC-3 prostate
RPMI-8226 leukemia = system: RPMI-8226 leukemia
RXF 393 renal = system: RXF 393 renal
SF-268 CNS = system: SF-268 CNS
SF-295 CNS = system: SF-295 CNS
SF-539 CNS = system: SF-539 CNS
SK-MEL-2 melanoma = system: SK-MEL-2 melanoma
SK-MEL-28 melanoma = system: SK-MEL-28 melanoma
SK-MEL-5 melanoma = system: SK-MEL-5 melanoma
SN12C renal = system: SN12C renal
SNB-19 CNS = system: SNB-19 CNS
SNB-75 CNS = system: SNB-75 CNS
SR leukemia = system: SR leukemia
SW-620 colon = system: SW-620 colon
T-47D breast = system: T-47D breast
TK-10 renal = system: TK-10 renal
U251 CNS = system: U251 CNS
UACC-257 melanoma = system: UACC-257 melanoma
UACC-62 melanoma = system: UACC-62 melanoma
UO-31 renal = system: UO-31 renal
BT-549 breast = system: BT-549 breast
HOP-92 NSCLC = system: HOP-92 NSCLC
SK-OV-3 ovarian = system: SK-OV-3 ovarian

Compound `CSS(C)(=O)=O` has a TGI (786-0 renal) of over 100 µM, a TGI (A498 renal) of over 100 µM and a TGI (A549 NSCLC) of over 100 µM. For the same compound, the TGI (ACHN renal) was 56.9 µM, the TGI (CAKI-1 renal) was 43.2 µM and the TGI (CCRF-CEM leukemia) was over 100 µM. For the same compound, the TGI (COLO 205 colon) was 40.1 µM, the TGI (DU-145 prostate) was 45.9 µM and the TGI (EKVX NSCLC) was 66.2 µM. The TGI (HCC-2998 colon) was 71.2 µM, the TGI (HCT-116 colon) was over 100 µM and the TGI (HCT-15 colon) was 58.8 µM. For the same compound, the TGI (HL-60(TB) leukemia) was 58.7 µM, the TGI (HOP-62 NSCLC) was over 100 µM and the TGI (HS 578T breast) was over 100 µM. The TGI (HT29 colon) was over 100 µM, the TGI (IGROV1 ovarian) was 45.2 µM and the TGI (K-562 leukemia) was 78.6 µM. For the same compound, the TGI (KM12 colon) was 87.1 µM, the TGI (LOX IMVI melanoma) was over 100 µM and the TGI (M14 melanoma) was 74.7 µM. It also gave a TGI (MALME-3M melanoma) of 48.4 µM, a TGI (MCF7 breast) of over 100 µM and a TGI (MDA-MB-231 breast) of over 100 µM. It also gave a TGI (MDA-MB-435) of 44.3 µM, a TGI (MOLT-4 leukemia) of 10.1 µM and a TGI (NCI-H226 lung) of 43.5 µM. For the same compound, the TGI (NCI-H23 lung) was 50.5 µM, the TGI (NCI-H460 lung) was over 100 µM and the TGI (NCI-H522 lung) was 37.1 µM. The TGI (NCI/ADR-RES ovarian) was over 100 µM, the TGI (OVCAR-3 ovarian) was 41.6 µM and the TGI (OVCAR-4 ovarian) was 64.3 µM. For the same compound, the TGI (OVCAR-5 ovarian) was 49.1 µM, the TGI (OVCAR-8 ovarian) was 68.8 µM and the TGI (PC-3 prostate) was 48.7 µM. The TGI (RPMI-8226 leukemia) was 5.36 µM, the TGI (RXF 393 renal) was 59.6 µM and the TGI (SF-268 CNS) was 96.9 µM. It also gave a TGI (SF-295 CNS) of 54.5 µM, a TGI (SF-539 CNS) of 37 µM and a TGI (SK-MEL-2 melanoma) of 60.2 µM. It also gave a TGI (SK-MEL-28 melanoma) of 48 µM, a TGI (SK-MEL-5 melanoma) of over 100 µM and a TGI (SN12C renal) of 45.3 µM. It also gave a TGI (SNB-19 CNS) of over 100 µM, a TGI (SNB-75 CNS) of 94.1 µM and a TGI (SR leukemia) of 38.6 µM. For the same compound, the TGI (SW-620 colon) was over 100 µM, the TGI (T-47D breast) was 57.2 µM and the TGI (TK-10 renal) was 46 µM. The TGI (U251 CNS) was over 100 µM, the TGI (UACC-257 melanoma) was 45.8 µM and the TGI (UACC-62 melanoma) was 42.3 µM. For the same compound, the TGI (UO-31 renal) was 52.1 µM.
In the case of `COc1cc2c(cc1OC)-c1ncc3cc(OC)c(OC)c(OC)c3c1C2`, the GI50 (786-0 renal) is reported as 40 µM, the TGI (786-0 renal) is reported as over 100 µM and the GI50 (A549 NSCLC) is reported as 32.1 µM. For the same compound, the TGI (A549 NSCLC) was over 100 µM, the GI50 (ACHN renal) was 32 µM and the TGI (ACHN renal) was over 100 µM. The GI50 (BT-549 breast) was 2.94 µM, the TGI (BT-549 breast) was 7.56 µM and the GI50 (CAKI-1 renal) was 20.5 µM. It also gave a TGI (CAKI-1 renal) of 86.1 µM, a GI50 (COLO 205 colon) of 27.7 µM and a TGI (COLO 205 colon) of over 100 µM. It also gave a GI50 (DU-145 prostate) of 21.7 µM, a TGI (DU-145 prostate) of over 100 µM and a GI50 (EKVX NSCLC) of 22.8 µM. For the same compound, the TGI (EKVX NSCLC) was 90.1 µM, the GI50 (HCC-2998 colon) was 26 µM and the TGI (HCC-2998 colon) was 95.8 µM. For the same compound, the GI50 (HCT-116 colon) was 31.8 µM, the TGI (HCT-116 colon) was over 100 µM and the GI50 (HCT-15 colon) was 35.4 µM. It also gave a TGI (HCT-15 colon) of over 100 µM, a GI50 (HOP-62 NSCLC) of 34.8 µM and a TGI (HOP-62 NSCLC) of 86.7 µM. The GI50 (HOP-92 NSCLC) was 15.3 µM, the TGI (HOP-92 NSCLC) was over 100 µM and the GI50 (HS 578T breast) was 4.11 µM. The TGI (HS 578T breast) was 27.2 µM, the GI50 (IGROV1 ovarian) was 33.5 µM and the TGI (IGROV1 ovarian) was over 100 µM. It also gave a GI50 (K-562 leukemia) of 3.89 µM, a TGI (K-562 leukemia) of 48.6 µM and a GI50 (KM12 colon) of 17.9 µM. It also gave a TGI (KM12 colon) of 95.1 µM, a GI50 (LOX IMVI melanoma) of 16.8 µM and a TGI (LOX IMVI melanoma) of 35.8 µM. It also gave a GI50 (M14 melanoma) of 45.2 µM, a TGI (M14 melanoma) of over 100 µM and a GI50 (MDA-MB-231 breast) of 2.54 µM. It also gave a TGI (MDA-MB-231 breast) of 48.7 µM, a GI50 (MDA-MB-435) of 16.2 µM and a TGI (MDA-MB-435) of 42.6 µM. For the same compound, the GI50 (NCI-H460 lung) was 31.6 µM, the TGI (NCI-H460 lung) was over 100 µM and the GI50 (NCI-H522 lung) was 10.3 µM. For the same compound, the TGI (NCI-H522 lung) was 41.7 µM, the GI50 (NCI/ADR-RES ovarian) was 19.1 µM and the TGI (NCI/ADR-RES ovarian) was 89.2 µM. The GI50 (OVCAR-3 ovarian) was 15.9 µM, the TGI (OVCAR-3 ovarian) was 43.9 µM and the GI50 (OVCAR-4 ovarian) was 62.6 µM. For the same compound, the TGI (OVCAR-4 ovarian) was over 100 µM, the GI50 (OVCAR-5 ovarian) was 57.3 µM and the TGI (OVCAR-5 ovarian) was over 100 µM. For the same compound, the GI50 (OVCAR-8 ovarian) was 12 µM, the TGI (OVCAR-8 ovarian) was 43.1 µM and the GI50 (PC-3 prostate) was 17.1 µM. The TGI (PC-3 prostate) was over 100 µM, the GI50 (RPMI-8226 leukemia) was 3.4 µM and the TGI (RPMI-8226 leukemia) was 23.1 µM. It also gave a GI50 (RXF 393 renal) of 23.2 µM, a TGI (RXF 393 renal) of 85.8 µM and a GI50 (SF-295 CNS) of 18.8 µM. It also gave a TGI (SF-295 CNS) of 53.8 µM, a GI50 (SF-539 CNS) of 14 µM and a TGI (SF-539 CNS) of 34 µM. It also gave a GI50 (SK-MEL-2 melanoma) of 21.7 µM, a TGI (SK-MEL-2 melanoma) of 73.9 µM and a GI50 (SK-MEL-28 melanoma) of 46.7 µM. It also gave a TGI (SK-MEL-28 melanoma) of over 100 µM, a GI50 (SK-MEL-5 melanoma) of 1.68 µM and a TGI (SK-MEL-5 melanoma) of 3.05 µM. It also gave a GI50 (SK-OV-3 ovarian) of 33 µM, a TGI (SK-OV-3 ovarian) of over 100 µM and a GI50 (SN12C renal) of 14.4 µM. It also gave a TGI (SN12C renal) of 47.9 µM, a GI50 (SNB-19 CNS) of 79.9 µM and a TGI (SNB-19 CNS) of over 100 µM. For the same compound, the GI50 (SNB-75 CNS) was 72 µM, the TGI (SNB-75 CNS) was over 100 µM and the GI50 (SR leukemia) was 11 µM. It also gave a TGI (SR leukemia) of 39.8 µM, a GI50 (SW-620 colon) of 38.7 µM and a TGI (SW-620 colon) of over 100 µM. The GI50 (T-47D breast) was over 100 µM, the TGI (T-47D breast) was over 100 µM and the GI50 (TK-10 renal) was 27.7 µM. For the same compound, the TGI (TK-10 renal) was over 100 µM, the GI50 (U251 CNS) was 36.8 µM and the TGI (U251 CNS) was over 100 µM. The GI50 (UACC-257 melanoma) was 16.4 µM, the TGI (UACC-257 melanoma) was 52.6 µM and the GI50 (UACC-62 melanoma) was 7.42 µM. For the same compound, the TGI (UACC-62 melanoma) was 26.8 µM, the GI50 (UO-31 renal) was 5.49 µM and the TGI (UO-31 renal) was 53.6 µM.
